Reference: ChEMBL document CHEMBL1137659, “Molecular epidemiology of clinical isolates of carbapenem-resistant Acinetobacter spp. from Chinese hospitals” (2007)
Converted amounts (≈) assume the structure as drawn.

Legend:
Acinetobacter baumannii [1] = assay: Antimicrobial activity against imipenem and meropenem-resistant Acinetobacter baumannii isolate PU4A1 by CLSI agar dilution method; type: functional
Acinetobacter baumannii [2] = assay: Antimicrobial activity against imipenem and meropenem-resistant Acinetobacter baumannii isolate PU73 by CLSI agar dilution method; type: functional
Acinetobacter baumannii [3] = assay: Antimicrobial activity against imipenem and meropenem-resistant Acinetobacter baumannii isolate PUA1 by CLSI agar dilution method; type: functional
Acinetobacter baumannii [4] = assay: Antimicrobial activity against imipenem and meropenem-resistant Acinetobacter baumannii isolate PU4A22 by CLSI agar dilution method; type: functional
Acinetobacter baumannii [5] = assay: Antimicrobial activity against imipenem and meropenem-resistant Acinetobacter baumannii isolate FW-F1 by CLSI agar dilution method; type: functional
Acinetobacter baumannii [6] = assay: Antimicrobial activity against imipenem and meropenem-resistant Acinetobacter baumannii isolate BJ3-23 by CLSI agar dilution method; type: functional
Acinetobacter baumannii [7] = assay: Antimicrobial activity against imipenem and meropenem-resistant Acinetobacter baumannii isolate BJ3-9 by CLSI agar dilution method; type: functional
Acinetobacter baumannii [8] = assay: Antimicrobial activity against imipenem and meropenem-resistant Acinetobacter baumannii isolate BJ55 by CLSI agar dilution method; type: functional
Acinetobacter baumannii [9] = assay: Antimicrobial activity against imipenem and meropenem-resistant Acinetobacter baumannii isolate BJ52 by CLSI agar dilution method; type: functional
Acinetobacter baumannii [10] = assay: Antimicrobial activity against imipenem and meropenem-resistant Acinetobacter baumannii isolate DL34 by CLSI agar dilution method; type: functional
Acinetobacter baumannii [11] = assay: Antimicrobial activity against imipenem and meropenem-resistant Acinetobacter baumannii isolate NJ59 by CLSI agar dilution method; type: functional
Acinetobacter baumannii [12] = assay: Antimicrobial activity against imipenem and meropenem-resistant Acinetobacter baumannii isolate ZJ32 by CLSI agar dilution method; type: functional
Acinetobacter baumannii [13] = assay: Antimicrobial activity against imipenem and meropenem-resistant Acinetobacter baumannii isolate ZJ58 by CLSI agar dilution method; type: functional
Acinetobacter baumannii [14] = assay: Antimicrobial activity against imipenem and meropenem-resistant Acinetobacter baumannii isolate ZJ36 by CLSI agar dilution method; type: functional
Acinetobacter baumannii [15] = assay: Antimicrobial activity against imipenem and meropenem-resistant Acinetobacter baumannii isolate ZJ49 by CLSI agar dilution method; type: functional
Acinetobacter baumannii [16] = assay: Antimicrobial activity against imipenem and meropenem-resistant Acinetobacter baumannii isolate CY7 by CLSI agar dilution method; type: functional
Acinetobacter baumannii [17] = assay: Antimicrobial activity against imipenem and meropenem-resistant Acinetobacter baumannii isolate FZ84 by CLSI agar dilution method; type: functional
Acinetobacter baumannii [18] = assay: Antimicrobial activity against imipenem and meropenem-resistant Acinetobacter baumannii isolate JN45 by CLSI agar dilution method; type: functional
Acinetobacter phenon 5 = assay: Antimicrobial activity against imipenem and meropenem-resistant Acinetobacter phenon 5 isolate PUA6 by CLSI agar dilution method
[19] = tested on: Acinetobacter genospecies 3; assay: Antimicrobial activity against imipenem and meropenem-resistant Acinetobacter genospecies 3 isolate PUA7 by CLSI agar dilution method
[20] = tested on: Acinetobacter genomosp. 3; assay: Antimicrobial activity against imipenem and meropenem-resistant Acinetobacter genospecies 3 isolate PU78 by CLSI agar dilution method; conditions: Acinetobacter genomosp. 3, isolate PU78
[21] = tested on: Acinetobacter genospecies 13TU; assay: Antimicrobial activity against imipenem and meropenem-resistant Acinetobacter genospecies 13TU isolate CY6 by CLSI agar dilution method
[22] = tested on: Acinetobacter phenon 6/ct 13TU (Acinetobacter sp.); assay: Antimicrobial activity against imipenem and meropenem-resistant Acinetobacter phenon 6/ct 13TU isolate PU86 by CLSI agar dilution method
[23] = tested on: Acinetobacter genospecies 10/11; assay: Antimicrobial activity against imipenem and meropenem-resistant Acinetobacter genospecies 10/11 isolate ZS5 by CLSI agar dilution method
[24] = tested on: Acinetobacter genospecies 10/11; assay: Antimicrobial activity against imipenem and meropenem-resistant Acinetobacter genospecies 10/11 isolate ZS15 by CLSI agar dilution method
[25] = tested on: Acinetobacter phenon 6/ct 13TU; assay: Antimicrobial activity against imipenem and meropenem-resistant Acinetobacter phenon 6/ct 13TU isolate FZ4A18 by CLSI agar dilution method
[26] = tested on: Acinetobacter genospecies 3; assay: Antimicrobial activity against imipenem and meropenem-resistant Acinetobacter genospecies 3 isolate PU78 by CLSI agar dilution method
[27] = tested on: Acinetobacter phenon 6/ct 13TU; assay: Antimicrobial activity against imipenem and meropenem-resistant Acinetobacter phenon 6/ct 13TU isolate PU86 by CLSI agar dilution method

Molecule	MIC (Acinetobacter baumannii [1])	MIC (Acinetobacter baumannii [2])	MIC (Acinetobacter baumannii [3])	MIC (Acinetobacter baumannii [4])	MIC (Acinetobacter baumannii [5])	MIC (Acinetobacter baumannii [6])	MIC (Acinetobacter baumannii [7])	MIC (Acinetobacter baumannii [8])	MIC (Acinetobacter baumannii [9])	MIC (Acinetobacter baumannii [10])	MIC (Acinetobacter baumannii [11])	MIC (Acinetobacter baumannii [12])	MIC (Acinetobacter baumannii [13])	MIC (Acinetobacter baumannii [14])	MIC (Acinetobacter baumannii [15])	MIC (Acinetobacter baumannii [16])	MIC (Acinetobacter baumannii [17])	MIC (Acinetobacter baumannii [18])	MIC (Acinetobacter phenon 5)	MIC [19]	further results
CN(C)c1ccc(O)c2c1C[C@H]1C[C@H]3[C@H](N(C)C)C(O)=C(C(N)=O)C(=O)[C@@]3(O)C(O)=C1C2=O [MINOCYCLINE]	2 µg/mL (≈ 4.37 µM)	8 µg/mL (≈ 17.5 µM)	4 µg/mL (≈ 8.74 µM)	2 µg/mL (≈ 4.37 µM)	2 µg/mL (≈ 4.37 µM)	8 µg/mL (≈ 17.5 µM)	4 µg/mL (≈ 8.74 µM)	16 µg/mL (≈ 35 µM)	8 µg/mL (≈ 17.5 µM)	8 µg/mL (≈ 17.5 µM)	4 µg/mL (≈ 8.74 µM)	16 µg/mL (≈ 35 µM)	16 µg/mL (≈ 35 µM)	32 µg/mL (≈ 69.9 µM)	32 µg/mL (≈ 69.9 µM)	0.5 µg/mL (≈ 1.09 µM)	4 µg/mL (≈ 8.74 µM)	0.5 µg/mL (≈ 1.09 µM)	0.5 µg/mL (≈ 1.09 µM)	0.5 µg/mL (≈ 1.09 µM)	MIC [20]: ≤ 0.125 µg/mL; MIC [21]: 0.25 µg/mL (≈ 0.546 µM); MIC [22]: ≤ 0.125 µg/mL; MIC [23]: 8 µg/mL (≈ 17.5 µM); MIC [24]: 0.25 µg/mL (≈ 0.546 µM); MIC [25]: 0.5 µg/mL (≈ 1.09 µM)
COLISTIN	0.5 µg/mL	1 µg/mL	0.5 µg/mL	1 µg/mL	0.5 µg/mL	1 µg/mL	1 µg/mL	0.5 µg/mL	1 µg/mL	0.5 µg/mL	0.5 µg/mL	1 µg/mL	1 µg/mL	1 µg/mL	1 µg/mL	0.5 µg/mL	0.5 µg/mL	1 µg/mL	0.5 µg/mL	0.5 µg/mL	MIC [26]: 1 µg/mL; MIC [21]: 0.5 µg/mL; MIC [27]: 1 µg/mL; MIC [23]: 0.5 µg/mL; MIC [24]: 1 µg/mL; MIC [25]: 1 µg/mL
